According to patent publication US20230416330A1, “Optimized GIP Peptide Analogues” (Antag Therapeutics ApS, priority 2019, published 2023):
Starred links: 1 amine or outer side, 2 acyl side, 3 side chain; linkers in the order of their positions; H or OH if unused. Non-standard residues stand in square brackets, D forms with d. Residues, ends and D or L forms follow the SMILES beside them. Groups on a side chain read outwards from the residue. *: point of attachment. C18 diacid = O=C(O)CCCCCCCCCCCCCCCCC(=O)*; C16 diacid = O=C(O)CCCCCCCCCCCCCCC(=O)*; γGlu = O=C(O)[C@H](CCC(=O)[*:2])N[*:1]; Glutaryl = O=C(CCCC(=O)[*:2])[*:1]; Nle = CCCC[C@H](N)C(=O)O; AEEA = NCCOCCOCC(=O)O; Aib = CC(C)(N)C(=O)O

How the values were obtained:
[1] = Solubility by visual inspection of peptide solutions; format: physicochemical
Outline: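 Solubility scored by eye: clear, colorless appearance after gentle mixing. Samples prepared at 1, 5, 7.5 or 15 mg/ml in either pH 7.4 water (NaOH-adjusted) or 50 mM sodium phosphate buffer, pH 7.4.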

[2] = Physical stability: fibril formation in Thioflavin T (ThT) assay with agitation; format: physicochemical; settings: 25° C., agitation
Outline: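 Read-out is continuous ThT fluorescence at 486 nm, with lag time taken where signal reaches 10% between pre- and post-transition baselines. Filtered samples (1, 5, 7.5 or 15 mg/ml; pH 7.4 phosphate buffer or NaOH-adjusted water) were stressed at 25° C. by orbital rotation at 300 rpm with one silica bead per well.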

human GIP receptor [3] = molecular target: T1, human GIP receptor (Homo sapiens, UniProt P48546); experiment: cAMP assay Alternative 1 (CisBio assay), GIPR antagonism; format: cell-based; settings: Table 2B; for cAMP antagonism % inhib: % inhibition of Emax
T1 construct: host or cells: HEK-293 cells, transient transfection (Lipofectamine 2000), cDNA in pCMV-Script vector
T1 sequence (P48546 22-466): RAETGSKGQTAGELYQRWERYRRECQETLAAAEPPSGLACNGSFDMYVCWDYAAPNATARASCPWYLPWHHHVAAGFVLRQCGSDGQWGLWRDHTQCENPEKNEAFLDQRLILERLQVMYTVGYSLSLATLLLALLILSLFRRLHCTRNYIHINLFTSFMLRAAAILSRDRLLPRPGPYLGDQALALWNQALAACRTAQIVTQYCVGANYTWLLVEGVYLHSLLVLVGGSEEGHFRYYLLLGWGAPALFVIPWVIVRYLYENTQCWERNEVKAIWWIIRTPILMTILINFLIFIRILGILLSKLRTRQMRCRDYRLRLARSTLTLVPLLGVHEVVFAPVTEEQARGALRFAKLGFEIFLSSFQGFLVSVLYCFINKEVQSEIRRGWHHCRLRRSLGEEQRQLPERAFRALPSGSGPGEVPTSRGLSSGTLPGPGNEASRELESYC
Outline: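 HEK293 cells transiently transfected with hGIPR, compounds diluted in HBSS/HEPES/pluronic/casein with 500 uM IBMX; decrease in intracellular cAMP read by HTRF (665/620 nm) and converted via cAMP standard curve. pIC50 from four-parameter fit; agonism tested separately after 30 min at 37° C.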

human GIP receptor [4] = molecular target: T1, human GIP receptor; experiment: cAMP assay Alternative 2 (Gaddum assay), antagonist potency pKb; format: cell-based; settings: Table 2C; Gaddum equation, single antagonist dose; HEK-293 hGIPR; read-out: nM (Kb)
Protocol: HEK293 cells were cultured in 10% CO2 and 37° C. in Dulbecco's modified Eagle's medium supplemented with 10% fetal bovine serum, 2 mM glutamine, 180 units/ml penicillin, and 45 µg/ml streptomycin. Transient transfection with hGIPR for the CisBio assay from Table 2C was performed by using Lipofectamine 2000.
Antagonist potency (pKb) was estimated in a functional setting. The estimated pKb values were calculated from the shifts of the agonist-concentration-response curves in the presence of a single dose of GIP peptide antagonists using the Gaddum equation: pKb=log(DR-1)-log(B), where DR (EC50′/EC50) is the dose ratio calculated from EC50 of GIP1-42 obtained in the presence and absence (EC50) of antagonist, and B is the antagonist concentration used.
The in vitro functional assessment of compounds towards human GIP receptor was determined in HEK-293 cells transiently expressing the receptor. On the day of the assay, cells were resuspended in HBSS buffer (Gibco, 14025-50) supplemented with […] (Gibco, 15630-106), 0.1% Pluronic F-68 (Gibco, 24040-032) and 0.1% casein (Sigma, C4765), and plated in 384-well plates at a density of 3500 cells/well. The GIP peptide analogues of the present disclosure were diluted in HBSS buffer supplemented with 20 mM HEPES, 0.1% pluronic, 0.1% casein and 500 uM IBMX. […] Increasing dose of agonist (GIP1-42) was subsequently added to cells and incubated for additionally 30 min at 37° C. The intracellular cAMP was quantitatively determined using the CisBio cAMP Dynamic 2 HTRF Assay Kit. The assay is based on a competition between native cAMP produced by cells and cAMP labeled with the dye d2 for binding to a cryptate labeled antibody. The specific signal (i.e. energy transfer signal) is inversely proportional to the concentration of cAMP in the sample.
The cAMP-d2 conjugate and the antibody anti-cAMP-Cryptate, both diluted in lysis buffer provided in the kit, were added to the cells according to the manufacturer's protocol. The resulting competitive assay was incubated for 60 minutes at room temperature, and the signal was detected by using a PerkinElmer Envision® instrument with excitation at 320 nm and emission at 665 nm and 620 nm. The HTRF ratio (emission at 665 nm/620 nm*10,000) is inversely proportional to the amount of cAMP present and is converted to nM cAMP per well using a cAMP standard curve.

Q: Which Visual appearance ([1]; 1 mg/ml, TFA, Phosphate (7.4)) does the source give for `CC[C@H](C)[C@H](NC(=O)[C@H](CCCCN)NC(=O)[C@H](CCC(=O)O)NC(=O)[C@H](CC(C)C)NC(=O)C(C)(C)NC(=O)[C@@H](NC(=O)[C@H](CO)NC(=O)[C@H](Cc1ccc(O)cc1)NC(=O)[C@H](CCC(=O)O)NC(=O)[C@H](CO)NC(=O)[C@@H](NC(=O)[C@H](Cc1ccccc1)NC(=O)[C@@H](NC(=O)CNC(=O)[C@@H](N)CCC(=O)O)[C@@H](C)O)[C@@H](C)CC)[C@@H](C)CC)C(=O)N[C@@H](CCCCNC(=O)COCCOCCNC(=O)COCCOCCNC(=O)CC[C@H](NC(=O)CCCCCCCCCCCCCCCCC(=O)O)C(=O)O)C(=O)N[C@@H](CCC(N)=O)C(=O)N[C@@H](CCC(N)=O)C(=O)N[C@@H](CCC(=O)O)C(=O)N[C@@H](Cc1ccccc1)C(=O)N[C@H](C(=O)N[C@@H](CCC(=O)O)C(=O)N[C@@H](Cc1c[nH]c2ccccc12)C(=O)N[C@@H](CC(C)C)C(=O)N[C@@H](CC(C)C)C(=O)N[C@@H](C)C(=O)N[C@@H](CCC(N)=O)C(=O)N[C@@H](CCCCN)C(=O)N1CCC[C@H]1C(=O)N[C@@H](CO)C(=O)N[C@@H](CO)C(=O)NCC(=O)N[C@@H](C)C(=O)N1CCC[C@H]1C(=O)N1CCC[C@H]1C(=O)N1CCC[C@H]1C(=O)N[C@@H](CO)C(=O)O)C(C)C` [AT695] (H-EGTFISEYSI[Aib]LEKIK([AEEA-AEEA-γGlu-C18 diacid])QQEFVEWLLAQKPSSGAPPPS-OH; N-terminus assumed) here?
A: Clear

Q: What about the Visual appearance ([1]; 5 mg/ml, Na, MilliQ (8)) of the same compound?
A: Clear

Q: What about the “Avr lag time (h)” value ([2]; 1 mg/ml, TFA, Phosphate (7.4)) of the same compound?
A: fnd (Fnd = fibrils not detected within experiment time (96 hours) with agitation.)

Q: What about the “Avr lag time (h)” value ([2]; 5 mg/ml, Na, MilliQ (8)) of the same compound?
A: fnd (Fnd = fibrils not detected within experiment time (96 hours) with agitation.)

Q: What about the “cAMP antagonism % inhib” value (human GIP receptor [3]) of the same compound?
A: 98%

Q: What about the IC50 (human GIP receptor [3]; HEK-293 cells transiently expressing hGIPR, agonist GIP1-42 at EC50, read-out: cAMP antagonism) of the same compound?
A: 0.794 nM

Q: For `CCCC[C@H](NC(=O)C(C)(C)NC(=O)[C@@H](NC(=O)[C@H](CO)NC(=O)[C@H](Cc1ccc(O)cc1)NC(=O)[C@H](CCC(=O)O)NC(=O)[C@H](CO)NC(=O)[C@@H](NC(=O)[C@H](Cc1ccccc1)NC(=O)[C@@H](NC(=O)CNC(=O)[C@@H](N)CCC(=O)O)[C@@H](C)O)[C@@H](C)CC)[C@@H](C)CC)C(=O)N[C@@H](CCC(=O)O)C(=O)N[C@@H](CCCCN)C(=O)N[C@H](C(=O)N[C@@H](CCCCNC(=O)COCCOCCNC(=O)COCCOCCNC(=O)CC[C@H](NC(=O)CCCCCCCCCCCCCCCCC(=O)O)C(=O)O)C(=O)N[C@@H](CCC(N)=O)C(=O)N[C@@H](CCC(N)=O)C(=O)N[C@@H](CCC(=O)O)C(=O)N[C@@H](Cc1ccccc1)C(=O)N[C@H](C(=O)N[C@@H](CCC(=O)O)C(=O)N[C@@H](Cc1c[nH]c2ccccc12)C(=O)N[C@@H](CC(C)C)C(=O)N[C@@H](CC(C)C)C(=O)N[C@@H](C)C(=O)N[C@@H](CCC(N)=O)C(=O)N[C@@H](CCCCN)C(=O)N1CCC[C@H]1C(=O)N[C@@H](CO)C(=O)N[C@@H](CO)C(=O)NCC(=O)N[C@@H](C)C(=O)N1CCC[C@H]1C(=O)N1CCC[C@H]1C(=O)N1CCC[C@H]1C(=O)N[C@@H](CO)C(=O)O)C(C)C)[C@@H](C)CC` [AT696] (H-EGTFISEYSI[Aib][Nle]EKIK([AEEA-AEEA-γGlu-C18 diacid])QQEFVEWLLAQKPSSGAPPPS-OH; N-terminus assumed), which Visual appearance ([1]; 1 mg/ml, TFA, Phosphate (7.4)) is on record?
A: Clear

Q: And the Visual appearance ([1]; 5 mg/ml, Na, MilliQ (8))?
A: Clear

Q: What about the Visual appearance ([1]; 7.5 mg/ml, Na, MilliQ (8)) of the same compound?
A: Clear

Q: And the Visual appearance ([1]; 15 mg/ml, Na, MilliQ (8))?
A: Clear

Q: And the “Avr lag time (h)” value ([2]; 1 mg/ml, TFA, Phosphate (7.4))?
A: fnd (Fnd = fibrils not detected within experiment time (96 hours) with agitation.)

Q: What about the “Avr lag time (h)” value ([2]; 5 mg/ml, Na, MilliQ (8)) of the same compound?
A: fnd (Fnd = fibrils not detected within experiment time (96 hours) with agitation.)

Q: And the “Avr lag time (h)” value ([2]; 7.5 mg/ml, Na, MilliQ (8))?
A: fnd (Fnd = fibrils not detected within experiment time (96 hours) with agitation.)

Q: What about the “Avr lag time (h)” value ([2]; 15 mg/ml, Na, MilliQ (8)) of the same compound?
A: fnd (Fnd = fibrils not detected within experiment time (96 hours) with agitation.)

Q: And the “cAMP antagonism % inhib” value (human GIP receptor [3])?
A: 97%

Q: Which Kb (human GIP receptor [4]) does the source give for `CC[C@H](C)[C@H](NC(=O)[C@H](CO)NC(=O)[C@H](Cc1ccc(O)cc1)NC(=O)[C@H](CCC(=O)O)NC(=O)[C@H](CO)NC(=O)[C@@H](NC(=O)[C@H](Cc1ccccc1)NC(=O)[C@@H](NC(=O)CNC(=O)CCCC(=O)O)[C@@H](C)O)[C@@H](C)CC)C(=O)N[C@@H](C)C(=O)N[C@@H](CC(C)C)C(=O)N[C@@H](CCC(=O)O)C(=O)N[C@@H](CCCCN)C(=O)N[C@H](C(=O)N[C@@H](CCCCNC(=O)COCCOCCNC(=O)COCCOCCNC(=O)CC[C@H](NC(=O)CCCCCCCCCCCCCCCCC(=O)O)C(=O)O)C(=O)N[C@@H](CCC(N)=O)C(=O)N[C@@H](CCC(N)=O)C(=O)N[C@@H](CCC(=O)O)C(=O)N[C@@H](Cc1ccccc1)C(=O)N[C@H](C(=O)N[C@@H](CCC(=O)O)C(=O)N[C@@H](Cc1c[nH]c2ccccc12)C(=O)N[C@@H](CC(C)C)C(=O)N[C@@H](CC(C)C)C(=O)N[C@@H](C)C(=O)N[C@@H](CCC(N)=O)C(=O)N[C@@H](CCCCN)C(=O)N1CCC[C@H]1C(=O)N[C@@H](CO)C(=O)N[C@@H](CO)C(=O)NCC(=O)N[C@@H](C)C(=O)N1CCC[C@H]1C(=O)N1CCC[C@H]1C(=O)N1CCC[C@H]1C(=O)N[C@@H](CO)C(=O)O)C(C)C)[C@@H](C)CC` [AT707] (Glutaryl-GTFISEYSIALEKIK([AEEA-AEEA-γGlu-C18 diacid])QQEFVEWLLAQKPSSGAPPPS-OH) here?
A: 0.28 nM

Q: For `CC[C@H](C)[C@H](NC(=O)[C@H](CCCCN)NC(=O)[C@H](CCC(=O)O)NC(=O)[C@H](CCSC)NC(=O)C(C)(C)NC(=O)[C@@H](NC(=O)[C@H](CO)NC(=O)[C@H](Cc1ccc(O)cc1)NC(=O)[C@H](CCC(=O)O)NC(=O)[C@H](CO)NC(=O)[C@@H](NC(=O)[C@H](Cc1ccccc1)NC(=O)[C@@H](NC(=O)CNC(=O)[C@@H](N)CCC(=O)O)[C@@H](C)O)[C@@H](C)CC)[C@@H](C)CC)C(=O)N[C@@H](CCCCNC(=O)CCCCCCCCCCCCCCC(=O)O)C(=O)N[C@@H](CCC(N)=O)C(=O)N[C@@H](CCC(N)=O)C(=O)N[C@@H](CC(=O)O)C(=O)N[C@@H](Cc1ccccc1)C(=O)N[C@H](C(=O)N[C@@H](CCC(=O)O)C(=O)N[C@@H](Cc1c[nH]c2ccccc12)C(=O)N[C@@H](CC(C)C)C(=O)N[C@@H](CC(C)C)C(=O)N[C@@H](C)C(=O)N[C@@H](CCC(N)=O)C(=O)N[C@@H](CCCCN)C(=O)N1CCC[C@H]1C(=O)N[C@@H](CO)C(=O)N[C@@H](CO)C(=O)NCC(=O)N[C@@H](C)C(=O)N1CCC[C@H]1C(=O)N1CCC[C@H]1C(=O)N1CCC[C@H]1C(=O)N[C@@H](CO)C(=O)O)C(C)C` [AT716] (H-EGTFISEYSI[Aib]MEKIK(C16 diacid)QQDFVEWLLAQKPSSGAPPPS-OH; N-terminus assumed), which Kb (human GIP receptor [4]) is on record?
A: 0.29 nM
